Reference: patent publication US9040523B2, “Antifungal 5,6-dihydro-4H-pyrrolo[1,2-α][1,4]-benzodiazepines and 6H-pyrrolo[1,2-α][1,4]benzodiazepines substituted with benzene derivatives” (JANSSEN PHARMACEUTICA NV, priority 2010, dated 2015)
Read-outs that look alike come from different tables or passages of the source.

Tests used:
[1] = tested on: Candida parapsilosis B66126; assay: Antifungal activity in vitro (resazurin susceptibility screen), Inf. D; type: cell-based; settings: Lodderomyces parapsilosis
How it was run: (§1)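 Each well was inoculated with 10^3 cfu of fungus onto dried, pre-spotted compound serial dilutions in RPMI-MOPS medium, with fungal growth read by resazurin. Growth was referenced to drug-free culture (100%) and medium-only (0%) controls on each plate.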

[2] = tested on: Sporothrix schenkii B62482; assay: Antifungal activity in vitro (resazurin susceptibility screen), Inf. A; type: cell-based; settings: Sporothrix
How it was run: (§2)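 This resazurin susceptibility screen used wells inoculated with 10^3 cfu per 200 μl in RPMI-MOPS, dispensed onto test plates holding spotted compound dilutions. Growth was normalised between fungus without antifungal (100%) and medium alone (0%).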

[3] = tested on: Trichophyton rubrum B68183; assay: Antifungal activity in vitro (resazurin susceptibility screen), Inf. C; type: cell-based
How it was run: as §2

[4] = tested on: Aspergillus fumigatus B42928; assay: Antifungal activity in vitro (resazurin susceptibility screen), Inf. E; type: cell-based
How it was run: as §2

[5] = tested on: Trichophyton mentagrophytes B70554; assay: Antifungal activity in vitro (resazurin susceptibility screen), Inf. G; type: cell-based; settings: Trichophyton mentagrophytes
How it was run: as §1

[6] = tested on: Microsporum canis B68128; assay: Antifungal activity in vitro (resazurin susceptibility screen), Inf. B; type: cell-based; settings: Microsporum canis
How it was run: as §1

[7] = Liver metabolic stability assay, hLM; type: in vitro ADME, human; settings: human liver microsomes, 1 mg protein/ml, 5 μM test compound, 15 min, 37 °C
Protocol: (§3) Liver preparations (microsomal fractions) were obtained from BD Gentest (San Jose, Calif., US). Metabolic stability was assessed using the following assay conditions. […] The mixture was pre-incubated at 37° C. for 5 min and the enzymatic reaction was started by addition of 5 μM test compound. After 0 (control) and 15 minutes (min), the reactions were terminated by addition of […] (500 μl). The precipitated material was removed by centrifugation at 1200 g for 10 min. The supernatant was analysed by LC-MS/MS on a ThermoFinnigan LCQ Deca XP ion-trap mass spectrometer equipped with an atmospheric pressure chemical ionisation source. Calculation of %-compound remaining was as described by Kantharaj et al. 2003 ((Kantharaj E., Tuytelaars A, Proost P E A, Ongel Z, van […] (2003). Simultaneous measurement of drug metabolic stability and identification of metabolites using ion-trap mass spectrometry.

[8] = Liver metabolic stability assay, gpLM; type: in vitro ADME, guinea pig
Protocol: as §3

[9] = Liver metabolic stability assay, mLM; type: in vitro ADME; settings: mouse liver microsomes, 1 mg protein/ml, 5 μM test compound, 15 min, 37 °C
Protocol: as §3

[10] = tested on: Cryptococcus neoformans B66663; assay: Antifungal activity in vitro (resazurin susceptibility screen), Inf. F; type: cell-based; settings: Cryptococcus neoformans
How it was run: as §2

[11] = tested on: Rhizopus oryzae IHEM5223; assay: Antifungal activity in vitro (resazurin susceptibility screen), Inf. J; type: cell-based; settings: Rhizopus arrhizus, 37 °C, 24 hours, resa time 6 hours, read-out: Inf. J pIC50 (converted)
Protocol: (§4) The standard susceptibility screen was performed in 96-well plates (U-bottom, Greiner Bio-One). […] These serial dilutions (10 n1) were then spotted onto test-plates that could be stored in the dark at 4° C. for a maximum period of 2 weeks. […] The different fungal species/isolates (Table 3a) were cryopreserved and 1/1000 diluted in medium just prior to use. A standard inoculum of 200 μl containing 10^3 colony-forming unit (cfu) was then added to each well. A positive control (100% growth=fungal culture without antifungal) and a negative control (0% growth ═RPMI-MOPS medium) were included on each plate. […] [table]

[12] = tested on: Rhizomucor miehei IHEM13391; assay: Antifungal activity in vitro (resazurin susceptibility screen), Inf. K; type: cell-based; settings: 37 °C, 48 hours, resa time 17 hours, read-out: Inf. K pIC50 (converted)
Protocol: as §4

[13] = tested on: Scedosporium apiospermum IHEM3817; assay: Antifungal activity in vitro (resazurin susceptibility screen), Inf. H; type: cell-based; settings: 37 °C, 48 hours, resa time 17 hours, read-out: Inf. H pIC50 (converted)
Protocol: as §4

[14] = tested on: Scedosporium prolificans IHEM21157; assay: Antifungal activity in vitro (resazurin susceptibility screen), Inf. I; type: cell-based; settings: Lomentospora prolificans, 37 °C, 48 hours, resa time 17 hours, read-out: Inf. I pIC50 (converted)
Protocol: as §4

Compound: CC(O)c1ccc(C2NCc3c(Cl)cccc3-n3cccc32)cc1 (stereo not drawn) [Compound 1, 4-(7-chloro-5,6-dihydro-4H-pyrrolo[1,2-a][1,4]benzodiazepin-4-yl)-alpha-methyl-benzenemethanol]
- IC50 ([1]; B66126, read-out: Inf. D pIC50 (converted)): > 63.1 µM
- IC50 ([2]; B62482, read-out: Inf. A pIC50 (converted)): > 63.1 µM
- IC50 ([3]; Trichophyton rubrum, B68183, read-out: Inf. C pIC50 (converted)): 3.16 µM
- melting point: 118.5 to 121.2 °C
- IC50 ([4]; Aspergillus fumigatus, B42928, read-out: Inf. E pIC50 (converted)): > 63.1 µM
- IC50 ([5]; B70554, read-out: Inf. G pIC50 (converted)): 12.6 µM
- IC50 ([6]; B68128, read-out: Inf. B pIC50 (converted)): 3.16 µM
- %-compound metabolised_Met_hLM [7]: 43%
- %-compound metabolised Met_gpLM ([8]; guinea pig, microsomes, 0.25 h, 5 μM, pH 7.4): 86%
- %-compound metabolised Met_mLM [9]: 51%
- IC50 ([10]; B66663, read-out: Inf. F pIC50 (converted)): 63.1 µM

Compound: CC(=O)c1ccc(C2=NCc3c(Cl)cccc3-n3cccc32)cc1 [Compound 17, 1-[4-(7-chloro-6H-pyrrolo[1,2-a][1,4]benzodiazepin-4-yl)phenyl]-ethanone]
- IC50 [11]: > 63.1 µM
- IC50 ([1]; Candida parapsilosis B66126, 37 °C, 24 hours, resa time 4 hours, read-out: Inf. D pIC50 (converted)): > 31.6 µM
- IC50 ([2]; B62482, Sporothrix schenkii B62482, 27 °C, 4 days, resa time 24 hours, highest in-test concentration 64 μM, read-out: Inf. A pIC50 (converted)): > 31.6 µM
- IC50 [12]: > 63.1 µM
- IC50 ([3]; Trichophyton rubrum B68183, 27 °C, 7 days, resa time 24 hours, read-out: Inf. C pIC50 (converted)): 0.0398 µM
- IC50 [13]: > 63.1 µM
- melting point: 252.3 to 252.6 °C
- IC50 ([4]; Aspergillus fumigatus B42928, 27 °C, 48 hours, resa time 17 hours, read-out: Inf. E pIC50 (converted)): > 31.6 µM
- IC50 [14]: > 63.1 µM
- IC50 ([5]; B70554, Trichophyton mentagrophytes B70554, 27 °C, 7 days, resa time 24 hours, read-out: Inf. G pIC50 (converted)): 0.251 µM
- IC50 ([6]; B68128, Microsporum canis B68128, 27 °C, 9 days, resa time 24 hours, read-out: Inf. B pIC50 (converted)): 0.2 µM
- %-compound metabolised_Met_hLM [7]: 50%
- %-compound metabolised Met_gpLM ([8]; guinea pig microsomes, 1 mg protein/ml, 5 μM test compound, 15 min, 37 °C): 84%
- %-compound metabolised Met_mLM [9]: 70%
- IC50 ([10]; B66663, Cryptococcus neoformans B66663, 37 °C, 24 hours, resa time 4 hours, read-out: Inf. F pIC50 (converted)): > 31.6 µM
